The test system of one experiment is IGFBP2. The following applies: patients treated (ref 28); cited from earlier work.
A further experiment concerns PTEN mutated tumors. As to conditions: cited from earlier work.
A further experiment concerns LNCaP cells. Description: Cell cycle analysis of LNCaP cells treated with PI3K inhibitor. The class given is cell-based. From the text: FIG. 5. IGFBP2 plays a functional role in the PI3K-Akt pathway. (A) Cell cycle analysis of vector or IGFBP2 infected LNCaP cells treated with PI3K inhibitor (LY294002). (B and C) Clonagenic assay on wild-type or IGFBP2 knockout mouse embryonic fibroblasts with or without constitutive-active Akt expression (B), or myc expression (C). To examine if IGFBP2 is involved in the PI3K signaling, a pharmacological approach was employed. Consistent with the result in FIG. 3B, LNCaP cells have a high basal level of Akt activation. […] To examine if IGFBP2 plays a biological role for Akt function, clonogenic assay was performed using IGFBP2 knockout MEF (23). While Akt promoted colony formation in IGFBP2 wild type MEF (FIG. 5B, top and left panel), deletion of IGFBP2 abrogated this promoting activity. The requirement of IGFBP2 is specific to Akt because c-myc promoted colony formation in both cells (FIG. 5C). The inability of Akt to promote colony formation in IGFBP2 knockout MEF can be rescued by re-introduction of IGFBP2 (FIG. 5B).

The text below walks through data of patent publication US20070253953A1, “Molecular Signature of the Pten Tumor Suppressor” (REGENTS OF THE UNIVERSITY OF CALIFORNIA, THE, priority 2003, published 2007).

In the case of “IGF-l: insulin-like growth factor 1, a stimulus for Akt activation”, the “level of IGFBP2 in serum” value in the experiment on IGFBP2 is on record as “elevated level”.
`CO[C@H]1C[C@@H]2CC[C@@H](C)[C@@](O)(O2)C(=O)C(=O)N2CCCC[C@H]2C(=O)O[C@H]([C@H](C)C[C@@H]2CC[C@@H](OC(=O)C(C)(CO)CO)[C@H](OC)C2)CC(=O)[C@H](C)/C=C(\C)[C@@H](O)[C@@H](OC)C(=O)[C@H](C)C[C@H](C)/C=C/C=C/C=C/1C` [CCI-779]: in the experiment with PTEN mutated tumors (PTEN mutated cancer cells), the “inhibition of PTEN mutated cancer cells” value is reported as “effectively inhibits”. In the experiment with PTEN mutated tumors (tumors with PTEN mutations (refs 22, 27)), the “sensitivity of tumors with PTEN mutations” value is listed as “more sensitive”.
Consider `O=c1cc(N2CCOCC2)oc2c(-c3ccccc3)cccc12` [LY294002], for which the “decrease of the percentage of cells in S phase” value with LNCaP cells is on record as 40%.
